Results taken from patent publication US20080275086A1, “Dpp-Iv Inhibitors” (priority 2005, published 2008).
Structures can show the parent of a compound that is named as a salt.

Biological target: T1, DPP-IV (Homo sapiens, UniProt P27487)
T1 construct: Soluble human DPP-IV lacking the transmembrane anchor (Gly31-Pro766); Pre-Pro-alpha-mating factor leader (secretion fusion) (N, cleaved yes); made in house
Assay: Continuous fluorimetric assay of inhibition of DPP-IV peptidase activity (Gly-Pro-AMC cleavage)
Format: biochemical
Conditions: not given
Experimental: Inhibition of DPP-IV peptidase activity was monitored with a continuous fluorimetric assay. This assay is based on the cleavage of the substrate Gly-Pro-AMC (Bachem) by DPP-IV, releasing free AMC. The assay is carried out in 96-well microtiterplates. In a total volume of 100 μL, compounds are preincubated with 50 pM DPP-IV employing a buffer containing 10 mM Hepes, 150 mM NaCl, 0.005% Tween 20 (pH 7.4). The reaction is started by the addition of 16 μM substrate and the fluorescence of liberated AMC is detected for 10 minutes at 25° C. with a fluorescence reader (BMG-Fluostar; BMG-Technologies) using an excitation wavelength of 370 nm and an emission wavelength of 450 nm. The final concentration of DMSO is 1%. The inhibitory potential of the compounds were determined.
Soluble human DPP-IV lacking the transmembrane anchor (Gly31-Pro766) was expressed in a recombinant YEAST-strain as Pre-Pro-alpha-mating fusion. The secreted product (rhuDPP-IV-Gly31-Pro766) was purified from fermentation broth (>90% purity) and used for inhouse screening.

T1 sequence (P27487 31-766): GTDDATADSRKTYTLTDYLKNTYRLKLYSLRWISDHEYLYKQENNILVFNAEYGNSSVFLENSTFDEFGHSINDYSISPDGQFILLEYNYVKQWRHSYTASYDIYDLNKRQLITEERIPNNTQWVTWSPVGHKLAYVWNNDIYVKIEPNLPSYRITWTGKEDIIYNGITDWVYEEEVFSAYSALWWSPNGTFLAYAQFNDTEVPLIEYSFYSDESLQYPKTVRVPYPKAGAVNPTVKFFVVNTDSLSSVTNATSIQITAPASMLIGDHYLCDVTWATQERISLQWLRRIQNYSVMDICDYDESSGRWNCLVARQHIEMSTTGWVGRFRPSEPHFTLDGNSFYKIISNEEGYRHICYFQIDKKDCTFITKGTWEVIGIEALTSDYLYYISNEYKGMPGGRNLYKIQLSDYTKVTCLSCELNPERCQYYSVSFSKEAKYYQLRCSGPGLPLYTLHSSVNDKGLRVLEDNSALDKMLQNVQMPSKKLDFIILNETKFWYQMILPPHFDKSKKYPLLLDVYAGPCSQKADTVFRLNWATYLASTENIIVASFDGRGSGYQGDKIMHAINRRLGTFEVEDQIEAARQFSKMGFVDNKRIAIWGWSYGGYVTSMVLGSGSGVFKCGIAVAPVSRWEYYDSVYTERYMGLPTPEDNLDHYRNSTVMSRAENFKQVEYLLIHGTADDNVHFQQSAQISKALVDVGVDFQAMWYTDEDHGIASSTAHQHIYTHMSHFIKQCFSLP

**Q.** How did the IC50 turn out when `N#CC1(c2ccccc2)CCN(C(=O)C[C@H](N)Cc2ccccc2F)CC1` [Example 5] was run?
**A.** < 500 nM

**Q.** Which IC50 does the source give for `N[C@@H](CC(=O)N1CCC(N2C(=O)Cc3ccccc32)CC1)Cc1ccccc1F` [Example 45] here?
**A.** < 500 nM

Same assay, conditions: 50 pM DPP-IV, 16 μM Gly-Pro-AMC, pH 7.4, 25° C.; values grouped in 2 classes; read-out: IC50 for inhibition of DPP-IV peptidase activity

**Q.** With `N[C@@H](CC(=O)N1CCC(C(=O)NCCO)CC1)Cc1ccccc1F` [Example 24] as the compound, how does the IC50 read?
**A.** 501 to 2000 nM

**Q.** Which IC50 does the source give for `Cc1ccc(S(=O)(=O)C2CCN(C(=O)C[C@H](N)Cc3ccccc3F)CC2)cc1` [Example 39] here?
**A.** < 500 nM

**Q.** How did the IC50 turn out when `N[C@@H](CC(=O)N1CCCC(F)C1)Cc1ccccc1F` (some centres unmarked) [Example 43] was run?
**A.** 501 to 2000 nM

**Q.** How did the IC50 turn out when `CCN(CC)C(=O)C1CCCN(C(=O)C[C@H](N)Cc2ccccc2F)C1` (some centres unmarked) [Example 11] was run?
**A.** 501 to 2000 nM

**Q.** For `N[C@@H](CC(=O)N1CCC(O)CC1)Cc1ccccc1F` [Example 10], which IC50 is on record?
**A.** 501 to 2000 nM

**Q.** With `N[C@@H](CC(=O)N1CCC(C(F)(F)F)CC1)Cc1ccccc1F` [Example 27] as the compound, how does the IC50 read?
**A.** < 500 nM

**Q.** Which IC50 does the source give for `N[C@@H](CC(=O)N1CCC(Cc2ccccc2)CC1)Cc1ccccc1F` [Example 1] here?
**A.** 501 to 2000 nM

**Q.** How did the IC50 turn out when `N[C@@H](CC(=O)N1CCC(n2c(=O)[nH]c3cc(Cl)ccc32)CC1)Cc1ccccc1F` [Example 14] was run?
**A.** < 500 nM

**Q.** `N[C@@H](CC(=O)N1CCC(c2ccccc2)CC1)Cc1ccccc1F` [Example 4] was tested. Which IC50 did it give?
**A.** < 500 nM

**Q.** Which IC50 does the source give for `N[C@@H](CC(=O)N1CCC(F)CC1)Cc1ccccc1F` [Example 44] here?
**A.** 501 to 2000 nM

**Q.** Which IC50 does the source give for `N[C@@H](CC(=O)N1CCCC(Cc2ccccc2Cl)C1)Cc1ccccc1F` (some centres unmarked) [Example 33] here?
**A.** 501 to 2000 nM

**Q.** Which IC50 does the source give for `N[C@@H](CC(=O)N1CC[C@@H](NC(=O)C2CC2)C1)Cc1ccccc1F` [Example 54, N-((R)-1-((R)-3-amino-4-(2-fluorophenyl)butanoyl)pyrrolidin-3-yl)cyclopropane-carboxamide trifluoroacetic acid salt] here?
**A.** < 500 nM

**Q.** How did the IC50 turn out when `N[C@@H](CC(=O)N1CCC(c2cccc(Cl)c2)CC1)Cc1ccccc1F` [Example 42] was run?
**A.** 501 to 2000 nM

**Q.** For `CS(=O)(=O)c1ccc(-c2noc(C3CCN(C(=O)C[C@H](N)Cc4ccccc4F)CC3)n2)cc1` [Example 22], which IC50 is on record?
**A.** < 500 nM

**Q.** Which IC50 does the source give for `N[C@@H](CC(=O)N1CCCC(F)(F)C1)Cc1ccccc1F` [Example 30] here?
**A.** 501 to 2000 nM

**Q.** For `N[C@@H](CC(=O)N1CCC(CO)CC1)Cc1ccccc1F` [Example 2], which IC50 is on record?
**A.** 501 to 2000 nM

**Q.** Which IC50 does the source give for `N[C@@H](CC(=O)N1CCC(N2CCOCC2)CC1)Cc1ccccc1F` [Example 25] here?
**A.** 501 to 2000 nM

**Q.** With `N[C@@H](CC(=O)N1CCC(c2ccccc2C(F)(F)F)CC1)Cc1ccccc1F` [Example 38] as the compound, how does the IC50 read?
**A.** < 500 nM

**Q.** For `N[C@@H](CC(=O)N1CCCC(Oc2ccccc2)C1)Cc1ccccc1F` (some centres unmarked) [Example 34], which IC50 is on record?
**A.** < 500 nM

**Q.** Which IC50 does the source give for `N[C@@H](CC(=O)N1CCC(c2cccc(F)c2)CC1)Cc1ccccc1F` [Example 37] here?
**A.** 501 to 2000 nM

**Q.** How did the IC50 turn out when `N[C@@H](CC(=O)N1CCCC1Cc1ccccn1)Cc1ccccc1F` (some centres unmarked) [Example 18] was run?
**A.** < 500 nM

**Q.** Which IC50 does the source give for `N[C@@H](CC(=O)N1CCCC1Cc1ccc(Cl)cc1)Cc1ccccc1F` (some centres unmarked) [Example 17] here?
**A.** < 500 nM

**Q.** `N[C@@H](CC(=O)N1CCC(N(C2CC2)S(=O)(=O)c2ccccc2)CC1)Cc1ccccc1F` [Example 3] was tested. Which IC50 did it give?
**A.** < 500 nM

**Q.** Which IC50 does the source give for `N[C@@H](CC(=O)N1CCC(c2ccc(Cl)cc2)CC1)Cc1ccccc1F` [Example 35] here?
**A.** 501 to 2000 nM

**Q.** For `N[C@@H](CC(=O)N1CCCC1Cc1cccnc1)Cc1ccccc1F` (some centres unmarked) [Example 13], which IC50 is on record?
**A.** < 500 nM

**Q.** For `N[C@@H](CC(=O)N1CC[C@H](NC(=O)C2CC2)C1)Cc1ccccc1F` [Example 52, N-((S)-1-((R)-3-amino-4-(2-fluorophenyl)butanoyl)pyrrolidin-3-yl)cyclopropane-carboxamide trifluoroacetic acid salt], which IC50 is on record?
**A.** < 500 nM

**Q.** `COc1ccc(C2CCN(C(=O)C[C@H](N)Cc3ccccc3F)CC2)cc1` [Example 7] was tested. Which IC50 did it give?
**A.** < 500 nM

**Q.** `N[C@@H](CC(=O)N1CCC(n2c(=O)[nH]c3ccccc32)CC1)Cc1ccccc1F` [Example 6] was tested. Which IC50 did it give?
**A.** < 500 nM

**Q.** For `N[C@@H](CC(=O)N1CCC(N(C2CC2)S(=O)(=O)c2ccc(Cl)cc2)CC1)Cc1ccccc1F` [Example 36], which IC50 is on record?
**A.** < 500 nM

**Q.** For `N[C@@H](CC(=O)N1CC(C(=O)Nc2ccccn2)C1)Cc1ccccc1F` [Example 50], which IC50 is on record?
**A.** 501 to 2000 nM

**Q.** How did the IC50 turn out when `N[C@@H](CC(=O)N1CC[C@@H](NC(=O)c2ccccc2)C1)Cc1ccccc1F` [Example 55, N-((R)-1-((R)-3-amino-4-(2-fluorophenyl)butanoyl)pyrrolidin-3-yl)benzamide trifluoroacetic acid salt] was run?
**A.** < 500 nM

**Q.** `N[C@@H](CC(=O)N1CCC(Nc2cccc(S(=O)(=O)C(F)(F)F)c2)CC1)Cc1ccccc1F` [Example 31] was tested. Which IC50 did it give?
**A.** < 500 nM

**Q.** With `N[C@@H](CC(=O)N1CCCC1Cc1ccccc1)Cc1ccccc1F` (mixture of isomers) [Example 12] as the compound, how does the IC50 read?
**A.** < 500 nM

**Q.** `N[C@@H](CC(=O)N1CCC(N2CCCCC2=O)CC1)Cc1ccccc1F` [Example 8] was tested. Which IC50 did it give?
**A.** 501 to 2000 nM

**Q.** `COc1ccccc1C1CCN(C(=O)C[C@H](N)Cc2ccccc2F)CC1` [Example 9] was tested. Which IC50 did it give?
**A.** < 500 nM

**Q.** With `N[C@@H](CC(=O)N1CCC(c2nc(-c3ccncc3)no2)CC1)Cc1ccccc1F` [Example 15] as the compound, how does the IC50 read?
**A.** < 500 nM

**Q.** `N[C@@H](CC(=O)N1CCC(c2nc3ccccc3[nH]2)CC1)Cc1ccccc1F` [Example 32] was tested. Which IC50 did it give?
**A.** < 500 nM

**Q.** With `N[C@H](Cc1ccccc1F)CS(=O)(=O)N1CCC[C@H]1CNS(=O)(=O)c1ccccc1` [Example 56, N-{(S)-1-[(R)-2-Amino-3-(2-fluoro-phenyl)-propane-1-sulphonyl]-pyrrolidin-2-ylmethyl}-benzenesulfonamide] as the compound, how does the IC50 read?
**A.** < 500 nM

**Q.** `N[C@@H](CC(=O)N1CCC(c2nc(-c3cnccn3)no2)CC1)Cc1ccccc1F` [Example 26] was tested. Which IC50 did it give?
**A.** < 500 nM

**Q.** Which IC50 does the source give for `N[C@@H](CC(=O)N1CCC(c2nnc(-c3ccccc3)o2)CC1)Cc1ccccc1F` [Example 21] here?
**A.** < 500 nM

**Q.** Which IC50 does the source give for `COc1cc(OC)nc(C2CCN(C(=O)C[C@H](N)Cc3ccccc3F)CC2)n1` [Example 29] here?
**A.** < 500 nM

**Q.** With `N[C@@H](CC(=O)N1CCC(c2nc(-c3cccc(C(F)(F)F)c3)no2)CC1)Cc1ccccc1F` [Example 40] as the compound, how does the IC50 read?
**A.** 501 to 2000 nM

**Q.** How did the IC50 turn out when `N[C@@H](CC(=O)N1CCC(n2nnc3ccccc32)CC1)Cc1ccccc1F` [Example 19] was run?
**A.** < 500 nM

**Q.** `N[C@@H](CC(=O)N1CCC(c2nc(-c3cccnc3)no2)CC1)Cc1ccccc1F` [Example 23] was tested. Which IC50 did it give?
**A.** < 500 nM

**Q.** `N[C@@H](CC(=O)N1CCC[C@@H]1Cc1ccccc1)Cc1ccccc1F` (single isomer, unassigned) [Example 48] was tested. Which IC50 did it give?
**A.** < 500 nM

**Q.** Which IC50 does the source give for `N[C@@H](CC(=O)N1CCC(Oc2ccccc2)CC1)Cc1ccccc1F` [Example 20] here?
**A.** < 500 nM

**Q.** For `N[C@@H](CC(=O)N1CCCC(C(F)(F)F)C1)Cc1ccccc1F` (some centres unmarked) [Example 46], which IC50 is on record?
**A.** 501 to 2000 nM

**Q.** For `N[C@@H](CC(=O)N1CCC(c2nnc(-c3cccc(C(F)(F)F)c3)o2)CC1)Cc1ccccc1F` [Example 41], which IC50 is on record?
**A.** 501 to 2000 nM

**Q.** `N[C@@H](CC(=O)N1CC(C(=O)NCc2ccccc2)C1)Cc1ccccc1F` [Example 49, 1-[3-(R)-amino-4-(2-fluoro-phenyl)-butyryl]-azetidine-3-carboxylic acid benzylamide] was tested. Which IC50 did it give?
**A.** 501 to 2000 nM

**Q.** `N[C@@H](CC(=O)N1CC(N2CCN(c3ccccn3)CC2)C1)Cc1ccccc1F` [Example 51, (3R)-3-amino-4-(2-fluoro-phenyl)-1-[3-(4-pyridin-2-yl-piperazin-1-yl)-azetidin-1-yl]-butan-1-one trifluoroacetic acid] was tested. Which IC50 did it give?
**A.** 501 to 2000 nM

**Q.** Which IC50 does the source give for `N[C@@H](CC(=O)N1CCC[C@H]1Cc1ccccc1)Cc1ccccc1F` (single isomer, unassigned) [Example 47] here?
**A.** < 500 nM

**Q.** Which IC50 does the source give for `N[C@@H](CC(=O)N1CCCC1Cc1cccc(Cl)c1)Cc1ccccc1F` (some centres unmarked) [Example 16] here?
**A.** < 500 nM

**Q.** How did the IC50 turn out when `N[C@@H](CC(=O)N1CCC(c2nnc(-c3ccc(F)cc3)o2)CC1)Cc1ccccc1F` [Example 28] was run?
**A.** < 500 nM

**Q.** `N[C@@H](CC(=O)N1CC[C@H](NC(=O)c2ccccc2)C1)Cc1ccccc1F` [Example 53, N-((S)-1-((R)-3-amino-4-(2-fluorophenyl)butanoyl)pyrrolidin-3-yl)benzamide trifluoroacetic acid salt] was tested. Which IC50 did it give?
**A.** < 500 nM
